The compounds below were run against T1, VHL-Elongin C-Elongin B (VCB) complex (Homo sapiens, UniProt P40337) (assay: Protein-observed NMR (1H-15N TROSY) titration of fragment hits against 15N-labeled VCB). Settings: not given.
T1 construct: gene (residues 54-213) was cloned into pET28a(+) vector; Elongin C (residues 17-112); His-tag (cleaved yes); made in house; host or cells: E. coli BL21(DE3), M9 minimal media with 15NH4Cl
Format: binding
Method: All NMR experiments were carried out at 310K using a 900 MHz Bruker Avance III spectrometer equipped with a TXI/TCI CryoProbe and a Bruker SampleJet. Two-dimensional 1H-15N TROSY spectra of VCB complex were recorded using 30-minute acquisition time and analyzed using Topspin 4.1.4 (Bruker). […]
screened as mixtures of 12 fragments prepared in twelve 96-well plates. Each NMR sample was made of 100µM of 15N-labeled VCB, 800µM of each fragment, and 5% DMSO-d6 for spectrometer locking in 3mm-diameter NMR tubes (Bruker). Hit mixtures were identified by comparing the chemical shifts of the backbone resonances to a ligand-free VCB spectrum and then deconvoluted by screening individual fragments.
TROSY titration experiments were used to determine binding affinity of the fragment hits identified from the screen. […]

T1 sequence (P40337 54-213): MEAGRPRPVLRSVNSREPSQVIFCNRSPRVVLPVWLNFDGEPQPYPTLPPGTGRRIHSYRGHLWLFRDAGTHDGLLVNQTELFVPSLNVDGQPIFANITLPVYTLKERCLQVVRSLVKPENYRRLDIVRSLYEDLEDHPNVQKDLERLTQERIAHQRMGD
T1 sequence (Q15369 17-112, further chain): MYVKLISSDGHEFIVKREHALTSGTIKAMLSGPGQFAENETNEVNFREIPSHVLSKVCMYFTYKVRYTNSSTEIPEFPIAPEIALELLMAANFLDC
T1 sequence (Q15370 1-104 partner limits assumed): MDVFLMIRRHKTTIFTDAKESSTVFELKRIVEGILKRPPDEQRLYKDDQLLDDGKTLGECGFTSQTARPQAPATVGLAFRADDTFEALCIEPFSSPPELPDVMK

SMILES	Kd
CC(C)N1CCN(Cc2ccccc2F)CC1 [compound 14]	3.7 mM

Same assay, conditions: TROSY titration, fragment 0.31-10 mM, 310K, Hill's equation model; hits grouped by binding pocket (A unknown, B VHL cryptic, C Elongin C, D HIF1α); read-out: NMR-derived binding affinity (KD)

SMILES	Kd
O=C1CCc2cc([N+](=O)[O-])ccc2N1 [compound 1]	1.7 mM
Nc1nc2ccccc2n1Cc1ccccc1 [compound 2]	0.49 mM
CC(C)OC(=O)c1ccc(Cl)c(N)c1 [compound 4]	5.6 mM
CC(C)NC(=O)c1cc2ccc3cccnc3c2[nH]1 [compound 5]	8.2 mM
Clc1ccc(CN2CCCCC2)cc1Cl [compound 6]	0.45 mM
CC(=O)c1cccc(NC(=O)c2cccs2)c1 [compound 7]	0.47 mM
SC1=NC2(CCCC2)N=C1c1ccccc1 [compound 8]	0.53 mM
CC(=O)N1CCc2ccc([N+](=O)[O-])cc21 [compound 9]	0.66 mM
O=C(Nc1ccc(F)c(Cl)c1)c1cnccn1 [compound 10]	0.71 mM
Cc1cc(Nc2cccc(O)c2)c2cccc(C)c2n1 [compound 11]	1.6 mM
CN(C)CCN(C)Cc1ccc(F)cc1 [compound 12]	1.3 mM
Nc1ccc2c(c1)ncn2CCO [compound 15]	4 mM
Cc1nc2cc(C(=O)O)ccc2n1C [compound 16]	6 mM
O=C(O)c1ccnc2[nH]cnc12 [compound 17]	7.5 mM

From publication PMC12358976, “NMR-Based Fragment Screen of the von Hippel-Lindau Elongin C&B Complex” (ACS Medicinal Chemistry Letters, 2025)
